Results on 69 molecules are retold here after ChEMBL document CHEMBL3507680, “University of Dundee, Gates Library screen for HepG2 cell viability”.

The data set is described as follows: Human HepG2 cell viability assay in 384 well format. Type of data set: toxicity, cell-based. Details: dose 125 nL, time 70.5 hour; concentration not given beside the values. To be noted: HepG2 cells, read-out: Inhibition.
Take `COc1ccc2c(c1)c(C(=O)Nc1n[nH]c(C(C)C)n1)cn2C(C)C`: the cytotoxicity at 70.5 h is 40.7%.

For the molecule `Cn1c(CN2CCOCC2)cc(=O)c(O)c1CN1CCCC1`, the cytotoxicity at 70.5 h is -6.51%.

For the molecule `O=C(CCc1nnc2ccccn2c1=O)NCc1cccnc1`, the cytotoxicity at 70.5 h was -14.8%.

For `O=C(C1CC(=O)N(c2n[nH]c3cc(Br)ccc23)C1)N1CCOCC1` (centres undefined), the cytotoxicity at 70.5 h was -11.9%.

Turning to `COCCn1ccc2ccc(C(=O)N3CCN(C(C)=O)CC3)cc21`, the cytotoxicity at 70.5 h is -13.7%.

With `CSCCC(Nc1nc(C)cc(C)n1)C(=O)NC(C)(C)CO` (centres undefined), the cytotoxicity at 70.5 h came out at 25.7%.

Turning to `O=C1CSC(c2ccsc2)c2c(n(C3CCCC3)[nH]c2=O)N1` (centres undefined), the cytotoxicity at 70.5 h is -12.7%.

As to `Cc1cc(C)nc(NCCCC(=O)NCCn2ccc3ccccc32)n1`, the cytotoxicity at 70.5 h is -30.2%.

Consider `CSCCC(Nc1nc(C)cc(C)n1)C(=O)NC1CCCC1` (centres undefined), for which the cytotoxicity at 70.5 h is -12.6%.

With `COCCn1cc(CC(=O)Nc2cc(C)n(C)n2)c2ccccc21`, the cytotoxicity at 70.5 h was -5.22%.

Consider `O=C(CCNc1ncccn1)Nc1ccc(Cn2cncn2)cc1`, for which the cytotoxicity at 70.5 h is -7.19%.

As for `CSCCC(Nc1nc(C)cc(C)n1)C(=O)NCC1CCOCC1` (centres undefined), the cytotoxicity at 70.5 h is -8.81%.

Regarding `COCCn1cc(CCC(=O)Nc2c(C)nn(C)c2C)c2ccccc21`, the cytotoxicity at 70.5 h is 49.6%.

Take `O=C(Nc1ncc[nH]1)c1cc(-c2cccnc2)n[nH]1`: the cytotoxicity at 70.5 h was -2.08%.

On to `CC(C)c1sc(Cl)nc1C(=O)N1CCN(c2ccccc2)CC1`, for which the cytotoxicity at 70.5 h turned out to be 28.2%.

Consider `CC(=O)Nc1cccc2c1ccn2CC(=O)NC(C)C`, for which the cytotoxicity at 70.5 h was -2.5%.

Consider `Cc1nn(C)c2nc(C(C)C)cc(C(=O)Nc3n[nH]c(C4CC4)n3)c12`, for which the cytotoxicity at 70.5 h amounted to 27%.

In the case of `CC1=Nc2c(c(=O)[nH]n2C2CCOCC2)C(c2cccc(O)c2)S1` (centres undefined), the cytotoxicity at 70.5 h was -7.06%.

In the case of `O=C(NCC1CCCO1)c1cc(-c2ccc3c(c2)CCO3)n[nH]1` (centres undefined), the cytotoxicity at 70.5 h was 16.6%.

Take `CCN1CCCC1CNC(=O)Cc1c(-c2ccc(Cl)cc2)n[nH]c1C` (centres undefined): the cytotoxicity at 70.5 h is 21.2%.

Turning to `O=C(NC1CCCc2c1[nH]c1ccc(F)cc21)c1n[nH]c2c1CCCC2` (centres undefined), the cytotoxicity at 70.5 h stood at 27%.

With `CC(C)n1cnc2ccc(NC(=O)CCCn3cccn3)cc2c1=O`, the cytotoxicity at 70.5 h worked out at 21.7%.

For the molecule `COCCn1cnc2ccc(NC(=O)c3ccc(OC)cc3)cc2c1=O`, the cytotoxicity at 70.5 h is -9.11%.

Consider `COc1ccc(C(=O)Nc2ccc3ncn(C(C)C)c(=O)c3c2)cc1`, for which the cytotoxicity at 70.5 h was -3.51%.

`O=C1CSC(c2ccncc2)c2c(n(C3CCOCC3)[nH]c2=O)N1` (centres undefined): the cytotoxicity at 70.5 h was found to be 36.4%.

Turning to `O=C1CSC(c2ccccc2)c2c(n(C3CCOCC3)[nH]c2=O)N1` (centres undefined), the cytotoxicity at 70.5 h was -23%.

With `COc1cccc(C(=O)Nc2n[nH]c(C3CCCO3)n2)c1` (centres undefined), the cytotoxicity at 70.5 h is 22.1%.

For `COc1ccc(-c2n[nH]c(C)c2CC(=O)N2CCOCC2)cc1`, the cytotoxicity at 70.5 h was -6.85%.

In the case of `COc1ccc(CC(=O)Nc2ccc3ncn(C)c(=O)c3c2)cc1`, the cytotoxicity at 70.5 h was -2.82%.

For the molecule `COCCn1ccc2c(C(=O)NC3CN4CCC3CC4)cccc21` (centres undefined), the cytotoxicity at 70.5 h was -20.8%.

With `COCCNC(=O)c1cc(-c2ccc3c(c2)CCO3)n[nH]1`, the cytotoxicity at 70.5 h amounted to 15.5%.

On to `CC(C)n1ccc2ccc(C(=O)NC3CN4CCC3CC4)cc21` (centres undefined), for which the cytotoxicity at 70.5 h was -17.1%.

As to `COc1ccc(-c2n[nH]c(C)c2CC(=O)NCCN2CCOCC2)cc1`, the cytotoxicity at 70.5 h was -2.78%.

On to `O=C(Cn1cnc2sccc2c1=O)NCCCc1nnc2ccccn12`, for which the cytotoxicity at 70.5 h was -17.5%.

For `COCCn1ccc2c(NC(=O)c3n[nH]c4c3CCC4)cccc21`, the cytotoxicity at 70.5 h is 1.93%.

Take `COc1ccc(-c2n[nH]c(C)c2CC(=O)NCC2CCCO2)cc1` (centres undefined): the cytotoxicity at 70.5 h is 20.6%.

Regarding `COc1ccc(C(=O)CNC(=O)c2nc(Cl)sc2C(C)C)cc1`, the cytotoxicity at 70.5 h came out at 25%.

Turning to `O=C1CSC(c2cccnc2)c2c(n(C3CCOCC3)[nH]c2=O)N1` (centres undefined), the cytotoxicity at 70.5 h was -24.2%.

Take `CC(C)c1sc(Cl)nc1C(=O)NCc1ccncc1`: the cytotoxicity at 70.5 h amounted to 19.6%.

For the molecule `O=C(CN1C(=O)CCC1=O)N1CCOCC1`, the cytotoxicity at 70.5 h is 48.6%.

For `CN(Cc1cccnc1)CC1CC12CCN(Cc1nccs1)CC2` (centres undefined), the cytotoxicity at 70.5 h was 2.96%.

As to `O=S(=O)(c1cccc(F)c1)N1C[C@@H]2COC[C@]2(COCC2CC2)C1`, the cytotoxicity at 70.5 h came out at 4.21%.

With `C1CCN(Cc2nnn3c2CN(CC2CC2)CCC3)C1`, the cytotoxicity at 70.5 h was determined as 0.89%.

Regarding `C1CN(CC2CCOCC2)Cc2c(CN3CCOCC3)nnn2C1`, the cytotoxicity at 70.5 h was 6.54%.

As to `c1nc2n(c1CN1CCOCC1)CCN(C1CCOC1)CC2` (centres undefined), the cytotoxicity at 70.5 h was found to be 7.7%.

Turning to `O=C(C1CCOC1)N1CCc2ncnc(NC3CCC3)c2CC1` (centres undefined), the cytotoxicity at 70.5 h is -2.47%.

With `CCN(CC)Cc1cnc2n1CCN(C1CCOC1)CC2` (centres undefined), the cytotoxicity at 70.5 h is -1.04%.

With `CC(C)NC(=O)[C@H]1CCS(=O)(=O)[C@@H]2CN(c3ncccn3)C[C@H]12`, the cytotoxicity at 70.5 h was -6.18%.

Turning to `CC(=O)N1CCCc2sc(C(=O)NC3CC3)nc21`, the cytotoxicity at 70.5 h was -6.9%.

Turning to `O=C(NC1CC1)c1nc2c(s1)CCCN2c1ccccc1`, the cytotoxicity at 70.5 h is -6.79%.

For the molecule `COc1cc(N2C[C@H]3CN(C(=O)c4cnccn4)C[C@H]3C2)ncn1`, the cytotoxicity at 70.5 h is -2.87%.

Take `O=C(c1ccoc1)N1CC[C@H]2[C@H]1CCN2S(=O)(=O)C1CC1`: the cytotoxicity at 70.5 h was 13.5%.

In the case of `O=C([C@H]1COC[C@H]2CN(c3ccncn3)C[C@H]21)N1CCCC1`, the cytotoxicity at 70.5 h amounted to 13.9%.

As for `O=C(c1ccncc1)N1CCc2onc(CN3CCCC3)c2C1`, the cytotoxicity at 70.5 h was determined as 18.4%.

Turning to `CCOCC1c2c(ncn2C(C)C)CCN1C(=O)CC` (centres undefined), the cytotoxicity at 70.5 h was determined as 7.88%.

`CCOC1CC2(CCN(Cc3nccn3C)CC2)C1`: the cytotoxicity at 70.5 h was -0.734%.

As for `CN(C)Cc1nn(C)c2c1CCN(C(=O)c1cnccn1)C2`, the cytotoxicity at 70.5 h turned out to be 17.9%.

As to `COc1ncnc2c1CCN(C(=O)NCc1cccnc1)CC2`, the cytotoxicity at 70.5 h is 1.49%.

With `CCCS(=O)(=O)N1C[C@@H]2CN(Cc3ccoc3)CCO[C@@H]2C1`, the cytotoxicity at 70.5 h was 6.66%.

For `Cc1cc(CN2C[C@@H]3CN(C(=O)c4ccsc4)CCO[C@@H]3C2)no1`, the cytotoxicity at 70.5 h amounted to 5.07%.

With `O=C(NCc1cccnc1)N1CCc2ncnc(C3CC3)c2CC1`, the cytotoxicity at 70.5 h was 5.6%.

For `COc1cc(N2CCC3(CCN(C(=O)c4cccnc4)CC3)C2)ncn1`, the cytotoxicity at 70.5 h was -6.37%.

For `O=C(NCC1CC1)[C@@H]1C[C@@H]2OCCN[C@@H]2C1`, the cytotoxicity at 70.5 h was -2.73%.

As to `O=C(c1ccsc1)N1CCO[C@@H]2CN(Cc3cccs3)C[C@@H]2C1`, the cytotoxicity at 70.5 h is -6.05%.

Consider `O=C(c1ccncc1)N1CC[C@H]2[C@H]1CCN2S(=O)(=O)C1CC1`, for which the cytotoxicity at 70.5 h was -5.53%.

In the case of `O=C([C@@H]1COC[C@H]2CN(c3ccncn3)C[C@H]21)N1CCCC1`, the cytotoxicity at 70.5 h stood at 10.6%.

As to `c1cncc(CN2CCc3ncnc(C4CC4)c3CC2)c1`, the cytotoxicity at 70.5 h stood at 2.26%.

As for `Cn1nnc2c1CCN(Cc1ccncc1)C2COCc1ccccc1` (centres undefined), the cytotoxicity at 70.5 h is -6.13%.

With `Cn1nc(CN2CCCC2)c2c1CN(C(=O)c1cccnc1)CC2`, the cytotoxicity at 70.5 h is -2.33%.
